# Earlier results as cited in publication PMC8236048, “Pharmaceutical design of a delivery system for the bacteriocin lacticin 3147” (Drug Delivery and Translational Research, 2021).
# Key:
# C. difficile = conditions: antimicrobial-resistant bacteria; cited from earlier work
# Description: (§1) Approximately 223,900 C. difficile infections and 12,800 resulting deaths were reported in the USA in 2017 [17]. Treatment failures and recurrences of infection after the use of antibiotics are increasingly common, with a 2–38% failure rate for vancomycin and 8–50% for metronidazole. A more virulent strain of C. d ...
# L. monocytogenes = conditions: cited from earlier work
# Description: as §1
# eukaryotic cells = conditions: cited from earlier work
# Description: as §1
# [1] = system: methicillin-resistant S. aureus (MRSA); conditions: cited from earlier work
# Description: as §1
substance,measurement,setting,value
lacticin 3147,activity against C. difficile,C. difficile,active at nanomolar concentrations
same,activity against L. monocytogenes,L. monocytogenes,active at nanomolar concentrations
same,toxicity to eukaryotic cells,eukaryotic cells,non-toxic
same,activity against methicillin-resistant S. aureus (MRSA),[1],active at nanomolar concentrations
